From patent US10660835B2, “Method for hair frizz reduction” (The Procter & Gamble Company, priority 2015, dated 2020)

Test: DVS water uptake after soaking treatment
Settings: pH 4.2, 40 deg C, at 90% RH
Method: The Moisture Control Material is added into a 50:50 ethanol:water solvent at a concentration of 2% w/w and mixed until completely dissolved. The solution pH is adjusted with sodium hydroxide (50% w/w) to a final pH of 4.2. The soaking solution is kept at 40 deg C. for 2 hrs until a uniform composition is obtained.
One hair switch of natural virgin brown hair is placed in 200 ml of this solution for 2 hours in an oven set at 40° C. After the 2-hour period, the hair is removed, air dried and then tested for moisture uptake using DVS. For the control experiment, a natural brown virgin hair switch of the same weight is placed in a 50:50 ethanol:water solvent and treated under identical conditions.
The % water reduction is calculated as follows: […]
Hair is soaked in active solution of pH 4.2 for different intervals of time from 10 min to 2 hrs at 40 deg C. Hair Switches are air dried and prepared for % water reduction measurement using DVS vs. control (no active).

For `O=C(O)c1cc(Cl)ccc1O` [5-Chlorosalicylic acid], the “% water reduction vs control” value (10 min soaking) was 9.6%, the “% water reduction vs control” value (20 min soaking) was 14.8% and the “% water reduction vs control” value (30 min soaking) was 19%. The “% water reduction vs control” value (1 hr soaking) was 26% and the “% water reduction vs control” value (2 hr soaking) was 30%.
